Data on one compound can be found in US20100297675A1, “SUBSTRATE AND METHOD FOR CULTURING BREAST CELLS” (priority 2008, published 2010).

In assay [1] the test system is MCF-7 malignant breast cells. Briefly: MCF-7 malignant cells cultured in porous PDMS substrate, treated with inhibitor, confocal fluorescence imaging. It is filed as cell-based. To be noted: MCF-7 in porous PDMS, 4 μM on alternate days for 15 days, F-actin/DAPI stain. The text has this: Porous polydimethylsiloxane (PDMS) substrates were generated by mixing a PDMS pre-polymer and a curing agent using the Sylgard 182 kit available from Dow Corning in a ratio of 10 to 1. The mixture was closely packed with sugar crystals of size ranging from 212-250 micrometers, which was then filled in a mold and cured at 100 degrees for one hour. The sugar in the cured polymer was washed out in an ultrasonic bath, forming porous PDMS substrates. The resulting porous PDMS was released from the mold and assembled into multi-well plate for cell culture. Malignant breast cells MCF-7 were seeded in wells having the porous PDMS substrates described in Example 1. 10,000 cells were seeded and cultured in EMEM cell culture medium with 10% Fetal Bovine Serum, 5% pen/strep, and 10 μg/ml of insulin. The medium was changed on alternate days. Following two weeks of culture, the cells were stained with Rhodamine phalloidin (F-actin staining) and DAPI nuclei counter stain and imaged with confocal fluorescence microscope as shown in FIG. 9. […] Differences in cellular morphology often contribute to differences in cellular function. […]

Assay [2] deals with breast cancer cells. The note with it: Matrigel 3D culture system; reported; cited from earlier work.
Assay [3] concerns MCF-7 malignant breast cells. Briefly: MCF-7 malignant cells cultured on 2D TCT culture surface, treated with inhibitor, confocal fluorescence imaging. It is filed as cell-based. To be noted: MCF-7 on TCT 2D surface; 4 μM on alternate days for 15 days; E-cadherin/DAPI stain; FIGS. 11A-C. The method, then: Differences in cellular morphology often contribute to differences in cellular function. To understand the difference of cellular functions between breast cells cultured in a porous substrate and on a 2D culture surface, 10,000 MCF-7 malignant cell were seeded and cultured in porous PDMS (as described in Example 1) and a TCT culture surface (tissue culture treated polystyrene, “TCT”, Coming Inc) under the same conditions. The cells were treated with 4 μM of PD98059 (MAPK inhibitor) and 4 μM of LY294002 (PI3K inhibitor) on alternate days for 15 days. […] In FIGS. 11A-C, the cells were stained for E-cadherin and counterstained with a DAPI nuclei stain. In FIG. 11A, untreated cells are shown at 14 days of culture. In FIG. 11B, cells treated with PD98059 are shown at 14 days of culture. In FIG. 11C, cells treated with LY294002 are shown at 14 days of culture. The green (E-cadherin) and blue (nuclei) stains cannot be seen in the black and white reproductions presented herein.

Regarding `COc1cccc(-c2cc(=O)c3ccccc3o2)c1N` [PD98059], the colony size result in assay [1] (FIGS. 12A-C) is “significantly reduced the colony size”. The “reversion of malignant phenotype (mass structure to acini structure)” value in assay [1] (FIGS. 13A-C) was “reversed malignant phenotype from mass structure to normal acini structure”. In assay [2], the “reversal of malignant behaviors of breast cancer cells” value is reported as “reverse malignant behaviors of breast cancer cells to certain degrees”. In addition, the “noticeable difference for the cells cultured on TCT surface (reversion of malignant phenotype or other change)” value in assay [3] is on record as “failed to induce noticeable difference”.
